Reference: patent US20240043514A1, “NOVEL METHOD FOR PRODUCING ANTIBODIES” (TSINGHUA UNIVERSITY, priority 2017, published 2024)

Key:
TLR9 = molecular target: T1, TLR9 (Homo sapiens, UniProt Q9NR96); test: Inhibition of CpG2006 (TLR9 agonist) by E6446; type: cell-based; conditions: data not shown
T1 sequence (Q9NR96 26-1032): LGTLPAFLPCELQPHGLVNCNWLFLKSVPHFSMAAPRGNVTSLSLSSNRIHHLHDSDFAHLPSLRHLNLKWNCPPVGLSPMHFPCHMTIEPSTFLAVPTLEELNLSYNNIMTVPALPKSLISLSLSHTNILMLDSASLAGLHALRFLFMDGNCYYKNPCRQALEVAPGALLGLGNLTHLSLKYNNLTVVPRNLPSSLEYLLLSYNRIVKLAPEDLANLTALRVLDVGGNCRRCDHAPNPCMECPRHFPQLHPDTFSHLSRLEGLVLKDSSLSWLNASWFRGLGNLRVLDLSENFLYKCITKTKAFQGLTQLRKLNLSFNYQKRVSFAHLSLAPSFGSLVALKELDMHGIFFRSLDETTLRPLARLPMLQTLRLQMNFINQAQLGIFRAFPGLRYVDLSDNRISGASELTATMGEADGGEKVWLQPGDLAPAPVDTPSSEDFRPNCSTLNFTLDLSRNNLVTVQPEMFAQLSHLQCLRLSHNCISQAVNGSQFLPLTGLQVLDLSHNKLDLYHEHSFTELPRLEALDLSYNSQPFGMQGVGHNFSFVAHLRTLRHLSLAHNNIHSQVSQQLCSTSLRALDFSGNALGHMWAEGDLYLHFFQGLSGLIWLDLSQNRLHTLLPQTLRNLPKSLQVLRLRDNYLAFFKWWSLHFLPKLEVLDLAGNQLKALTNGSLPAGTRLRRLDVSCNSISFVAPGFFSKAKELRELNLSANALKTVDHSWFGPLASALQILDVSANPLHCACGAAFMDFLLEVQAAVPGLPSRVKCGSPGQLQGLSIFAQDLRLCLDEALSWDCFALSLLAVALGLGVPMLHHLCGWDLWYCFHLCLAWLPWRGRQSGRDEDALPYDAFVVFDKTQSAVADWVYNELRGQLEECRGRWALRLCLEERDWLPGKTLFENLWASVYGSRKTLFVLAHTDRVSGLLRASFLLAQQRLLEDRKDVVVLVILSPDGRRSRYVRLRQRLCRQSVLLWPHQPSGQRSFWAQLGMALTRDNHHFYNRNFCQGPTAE
Protocol: (§1) E6446 dihydrochloride (E6446-HCL), a synthetic nucleic acid-sensing TLRs antagonist. It's IC50 for CpG2006 (TLR9 agonist) was in the range of 0.01-0.03 uM (data not shown). But it required 2-8 uM (a 100-fold higher concentration) to inhibit the effect of R848 (TLR7/8 agonist) (data not shown).

PBMCs = test: In vitro immunization (IVI) of PBMCs, antigen-specific IgG/IgM production by ELISA; type: cell-based, human; conditions: 500 nM synthesized TLR7/8 agonist
Protocol: PBMCs were washed and diluted with PIV culture medium. Cell density was adjusted to 1*10^^7 cells/ml, treateder with 0.25 mM LLME for about 20 min. Discarded supernatant, and re-suspended cell with PIV culture medium. Adjusted cell density to 9*10^^5 cells/ml. […] Cultured the tissue for 7 days at 37° C., 5% CO2. Changed half of the medium and added factor cocktail on day 7. Cultured the cells for 7-21 days at 37° C., 5% CO2. Collected the supernatant on day 7, day 14, or day 21 for analysis of antibody production by ELISA, whereas the pellets are used for testing gene expression by PCR or RT-PCR. The collected cells were also tested in ELISpot assay for FACS analysis.
Exemplary IVI steps with addition of stimulate factors: • 1. Prepared PBMCs and treat them with LLME. • 2. […] Collected the cells and plate them into 96-well plate at a density of 6*10^4/well. • 4. […] The IgG and IgM level was examined with ELISA assay.
After day7 or day14 with addition of cytokines or antibody-enhancing composition and antigens, supernatants were harvested and added to antigen OVA-coated plates. After 2 hr incubation, a HRP-conjugated anti-human IgG or anti-human IgM was added, the amount of antigen-specific antibody was measured using TMB as substrate. The data represents the mean of 2 replicates; error bars represent SD. One representative data of 3 separate experiments is shown.
Plates were coated with antigen at 5 μg/ml overnight at 4° C. and washed them in PBST (containing 0.5% Tween-20). The plates were blocked with 5% BSA before addition of cell culture supernatants and horseradish peroxidase (HRP)-conjugated detection antibodies (dilutions: 1 in 2,500 for HRP-conjugated IgG-specific antibody (Jackson) and HRP-conjugated IgM-specific antibody. TMB substrates solution was used for measurement. […]
To further test effects of other cytokine or molecules on antibody production, a synthesized TLR7/8 agonist (50 nM and 500 nM) was added to the IVI system in the presence of antigen OVA (2 μg/ml).
An exemplary cytokine, IL1β, was tested. PBMCs were incubated in vitro with OVA, basic, and either some of the known stimulating factors ICOS, CD40L, TLR7/8 agonists or IL1β (in different doses) (1.5*10^^5 cell/well, 96 well plate). After 7 or 14 days, supernatants were harvested, and IgG/IgM antibody production was measured by ELISA assay.

TLR7/8 = test: Inhibition of the effect of R848 (TLR7/8 agonist) by E6446; type: cell-based
Protocol: as §1

[1] = tested on: Follicular dendritic cells (FDCs); test: Flow cytometry of follicular dendritic cells (CD3-CD19-CD21+/CD35+) in PBMCs; type: cell-based, human; conditions: high concentration of E6446 (10 uM), with TLR7/8 agonist
Protocol: FIGS. 12A-12G show the interactive effects between synthesized TLR7/8 agonist and TLR9 antagonist in stimulating anti-OVA antibody production in PBMCs. At low concentrations (0.02-0.2 uM), the E6446 enhanced the effect of synthesized TLR7/8, whereas at a high concentration (10 uM), E6446 inhibited this effect. Enzyme-linked immunosorbent assay (ELISA) analysis of OVA-specific antibodies of IgG (FIGS. 12A and 12D) and IgM (FIGS. 12B and 12E) responses were performed 7 days or 14 days after stimulant incubation. Cell proliferation (FIGS. 12C and 12F) was assayed by CellTiter-glo kit. Cells were harvested and tested by Flow cytometry (G). Follicular dendritic cells (FDCs) cells were gated as CD3^−CD19^−CD21^+/CD35^+ cells. Note. CD35 and CD21 are dendritic cell (DC) markers which may represent two subpopulations of DCs. The CD21-sub-type is inhibited by high concentration of E6446. […] The data represented the mean of 3 replicates; error bars represented SD. […]

- IC50 (TLR9): 10 to 30 nM
- concentration to inhibit R848 relative to IC50 for CpG2006 (TLR7/8; TLR7/8 versus TLR9): 100 fold
SMILES: Cl.Cl.c1cc(-c2nc3ccc(OCCCN4CCCC4)cc3o2)ccc1OCCCN1CCCC1 [E6446 dihydrochloride]
- effect of low concentration E6446 on IgG production with TLR7/8 agonist (PBMCs; E6446 0.02 uM and 0.2 uM, 14-day cultures, OVA+IL2+IL21): promotes the effects of TLR7/8 agonist on antibody IgG production
- effect of high concentration E6446 on IgG and IgM production with TLR7/8 agonist (PBMCs; E6446 10 uM, 7-day and 14-day cultures): reverses the effects of TLR7/8 agonist
- concentration required to inhibit the effect of R848 (TLR7/8 agonist) (TLR7/8; data not shown): 2 to 8 µM
- CD21-sub-type of dendritic cells [1]: inhibited
